In PubChem BioAssay (NCI):
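Method: 48-hour compound exposure of cells in 96-well plates, five concentrations, linear interpolation of endpoints. TGI denotes the concentration required for complete inhibition of growth.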

Columns and labels:
Assay in all cases: inhibition of tumour cell growth, NCI panel, 48 h
SF-295 CNS = test system: SF-295 CNS
UO-31 renal = test system: UO-31 renal
UACC-257 melanoma = test system: UACC-257 melanoma
LOX IMVI melanoma = test system: LOX IMVI melanoma
RPMI-8226 leukemia = test system: RPMI-8226 leukemia
OVCAR-3 ovarian = test system: OVCAR-3 ovarian
IGROV1 ovarian = test system: IGROV1 ovarian
CCRF-CEM leukemia = test system: CCRF-CEM leukemia
M14 melanoma = test system: M14 melanoma
SNB-75 CNS = test system: SNB-75 CNS
NCI/ADR-RES ovarian = test system: NCI/ADR-RES ovarian
SN12C renal = test system: SN12C renal
TK-10 renal = test system: TK-10 renal
BT-549 breast = test system: BT-549 breast
HOP-92 NSCLC = test system: HOP-92 NSCLC
SK-OV-3 ovarian = test system: SK-OV-3 ovarian
SNB-19 CNS = test system: SNB-19 CNS
SF-268 CNS = test system: SF-268 CNS
HL-60(TB) leukemia = test system: HL-60(TB) leukemia
MOLT-4 leukemia = test system: MOLT-4 leukemia
HS 578T breast = test system: HS 578T breast
K-562 leukemia = test system: K-562 leukemia
HCT-116 colon = test system: HCT-116 colon
OVCAR-5 ovarian = test system: OVCAR-5 ovarian
SK-MEL-2 melanoma = test system: SK-MEL-2 melanoma
786-0 renal = test system: 786-0 renal
HT29 colon = test system: HT29 colon
PC-3 prostate = test system: PC-3 prostate
HCC-2998 colon = test system: HCC-2998 colon
HOP-62 NSCLC = test system: HOP-62 NSCLC
OVCAR-4 ovarian = test system: OVCAR-4 ovarian
SR leukemia = test system: SR leukemia
U251 CNS = test system: U251 CNS
SF-539 CNS = test system: SF-539 CNS
KM12 colon = test system: KM12 colon
NCI-H460 lung = test system: NCI-H460 lung
CAKI-1 renal = test system: CAKI-1 renal
UACC-62 melanoma = test system: UACC-62 melanoma
MCF7 breast = test system: MCF7 breast
DU-145 prostate = test system: DU-145 prostate
ACHN renal = test system: ACHN renal
COLO 205 colon = test system: COLO 205 colon
HCT-15 colon = test system: HCT-15 colon
A549 NSCLC = test system: A549 NSCLC
NCI-H23 lung = test system: NCI-H23 lung
NCI-H522 lung = test system: NCI-H522 lung
EKVX NSCLC = test system: EKVX NSCLC
T-47D breast = test system: T-47D breast
NCI-H226 lung = test system: NCI-H226 lung
OVCAR-8 ovarian = test system: OVCAR-8 ovarian
MDA-MB-435 = test system: MDA-MB-435
RXF 393 renal = test system: RXF 393 renal
MALME-3M melanoma = test system: MALME-3M melanoma

How did the TGI (SF-295 CNS) turn out when CSc1ccc(-c2cc(-c3nc4ccccc4[nH]3)nc3[nH]c(-c4nc5ccccc5[nH]4)cc(=O)c23)cc1 was run?
Its TGI is greater than 100 µM.

And the TGI (UO-31 renal)?
Its TGI is greater than 100 µM.

What about the TGI (UACC-257 melanoma) of the same molecule?
The TGI was greater than 100 µM.

What about the TGI (LOX IMVI melanoma) of the same molecule?
The TGI was greater than 100 µM.

What about the TGI (RPMI-8226 leukemia) of the same molecule?
The TGI was greater than 100 µM.

What about the TGI (OVCAR-3 ovarian) of the same molecule?
The TGI was greater than 100 µM.

What about the TGI (IGROV1 ovarian) of the same molecule?
Its TGI is greater than 100 µM.

What about the TGI (CCRF-CEM leukemia) of the same molecule?
Its TGI is greater than 100 µM.

What about the TGI (M14 melanoma) of the same molecule?
The TGI was greater than 100 µM.

What about the TGI (SNB-75 CNS) of the same molecule?
Its TGI is greater than 100 µM.

And the TGI (NCI/ADR-RES ovarian)?
Its TGI is greater than 100 µM.

What about the TGI (SN12C renal) of the same molecule?
The TGI was greater than 100 µM.

And the TGI (TK-10 renal)?
Its TGI is greater than 100 µM.

And the TGI (BT-549 breast)?
The TGI was greater than 100 µM.

What about the TGI (HOP-92 NSCLC) of the same molecule?
The TGI was greater than 100 µM.

What about the TGI (SK-OV-3 ovarian) of the same molecule?
Its TGI is greater than 100 µM.

What about the TGI (SNB-19 CNS) of the same molecule?
Its TGI is greater than 100 µM.

And the TGI (SF-268 CNS)?
Its TGI is greater than 100 µM.

And the TGI (HL-60(TB) leukemia)?
The TGI was greater than 100 µM.

What about the TGI (MOLT-4 leukemia) of the same molecule?
Its TGI is greater than 100 µM.

And the TGI (HS 578T breast)?
The TGI was greater than 100 µM.

What about the TGI (K-562 leukemia) of the same molecule?
The TGI was greater than 100 µM.

And the TGI (HCT-116 colon)?
Its TGI is greater than 100 µM.

And the TGI (OVCAR-5 ovarian)?
The TGI was greater than 100 µM.

What about the TGI (SK-MEL-2 melanoma) of the same molecule?
The TGI was greater than 100 µM.

And the TGI (786-0 renal)?
The TGI was greater than 100 µM.

What about the TGI (HT29 colon) of the same molecule?
Its TGI is greater than 100 µM.

And the TGI (PC-3 prostate)?
The TGI was greater than 100 µM.

And the TGI (HCC-2998 colon)?
The TGI was 42.7 µM.

And the TGI (HOP-62 NSCLC)?
Its TGI is greater than 100 µM.

And the TGI (OVCAR-4 ovarian)?
The TGI was greater than 100 µM.

What about the TGI (SR leukemia) of the same molecule?
Its TGI is greater than 100 µM.

And the TGI (U251 CNS)?
The TGI was greater than 100 µM.

And the TGI (SF-539 CNS)?
Its TGI is greater than 100 µM.

What about the TGI (KM12 colon) of the same molecule?
Its TGI is greater than 100 µM.

And the TGI (NCI-H460 lung)?
The TGI was greater than 100 µM.

And the TGI (CAKI-1 renal)?
The TGI was greater than 100 µM.

What about the TGI (UACC-62 melanoma) of the same molecule?
The TGI was greater than 100 µM.

And the TGI (MCF7 breast)?
The TGI was greater than 100 µM.

And the TGI (DU-145 prostate)?
Its TGI is greater than 100 µM.

And the TGI (ACHN renal)?
Its TGI is greater than 100 µM.

What about the TGI (COLO 205 colon) of the same molecule?
Its TGI is greater than 100 µM.

And the TGI (HCT-15 colon)?
Its TGI is greater than 100 µM.

What about the TGI (A549 NSCLC) of the same molecule?
The TGI was greater than 100 µM.

And the TGI (NCI-H23 lung)?
The TGI was greater than 100 µM.

And the TGI (NCI-H522 lung)?
Its TGI is greater than 100 µM.

What about the TGI (EKVX NSCLC) of the same molecule?
Its TGI is greater than 100 µM.

And the TGI (T-47D breast)?
The TGI was greater than 100 µM.

And the TGI (NCI-H226 lung)?
Its TGI is greater than 100 µM.

And the TGI (OVCAR-8 ovarian)?
Its TGI is greater than 100 µM.

What about the TGI (MDA-MB-435) of the same molecule?
Its TGI is greater than 100 µM.

And the TGI (RXF 393 renal)?
Its TGI is greater than 100 µM.

And the TGI (MALME-3M melanoma)?
Its TGI is greater than 100 µM.
